Experimental data from patent publication US20100190860A1, “METHODS FOR SELECTIVELY ENHANCING ANTINOCICEPTIVE POTENCY OF LOCAL ANESTHETICS” (The Brigham and Women's Hospital, Inc., priority 2009, published 2010).
Entries after “also recorded” stand apart in the source; their conditions may differ. Structures can show the parent of a compound that is named as a salt. Where two headings read alike, the source gives them in different places.

Legend:
[1] = system: cutaneous trunci muscle reflex; assay type: in vivo, rat
Description: (§1) It was hypothesized that the combined application of amitriptyline and capsaicin as a transdermal patch will produce prolonged cutaneous analgesia compared to amitriptyline alone. Male Sprague-Dawley rats (weights 250-300 g) were assigned to five treatment groups (n=6-8). Transdermal patches containing amitriptyline with different concentrations of capsaicin were applied to the rats' shaved backs: 2.5% amitriptyline alone (control group) and in combinations with 0.05%, 0.15%, 1, and 8% capsaicin for 3 hours. Behavioral testing for cutaneous nociception was conducted before and after patch removal, using the cutaneous trunci muscle reflex (CTMR). In addition, skin appearance was assessed to determine irritation by the formulation.

sciatic nerve [2] = test: Rat sciatic nerve block: nociception (nocifensive withdrawal reflex and vocalization to skin pinch); assay type: in vivo; conditions: for dose-response of block, in words: 0.0625, 0.125 and 0.25%, injection followed by capsaicin; for kind of blockade (nociceptive vs motor), in words: local anesthetic with injection of capsaicin 0.05% 10 minutes later; for effect of vehicle on block, in words: vehicle (10% ethanol, 10% Tween 80, 80% saline) injected 10 min after the drug
sciatic nerve [3] = test: Rat sciatic nerve block: motor function (extensor postural thrust); assay type: in vivo
Method: The rats were assigned to treatments via block randomization with a block size of 8. All rats were anesthetized by inhalation of 1-2% of sevoflurane (Abbott Laboratory, North Chicago, Ill.) until no withdrawal to pinch of the leg occurred (by forceps). […] All drugs were given alone or co-administered with capsaicin at 0.05%/1.6 mM. Co-administration of capsaicin was performed either 10 minutes after the first drug or simultaneously (e.g., mixed with the local anesthetic). The vehicle control group received local anesthetic followed by injection of vehicle 10 minutes later. Capsaicin was also injected alone as was normal saline. Each drug was injected was injected in a volume of 0.2 mL. The experimenter was blinded to the drug used, but was not blinded to the administration of a second drug 10 minutes later which was either capsaicin or vehicle alone.
The effects of local anesthetics and capsaicin on motor function and nociception were evaluated. Rats were examined before injection for baseline functions, and at 10, 20, 30, 60, and 90 minutes and 2, 3, 6, 12, 24, and 36 hours after drug administration. Motor function was assayed by holding the rat upright with the control hind limb extended so that the distal metatarsus and toes of the target leg supported the animal's weight; the extensor postural thrust was recorded as the force (in grams) applied by each of the two hind limbs to a digital platform balance (Ohaus Lopro; Fisher Scientific, Florham Park, N.J.). The reduction in this force, representing reduced extensor-muscle contraction caused by motor block, was calculated as a percentage of the control force (pre-injection control value=145 to 165 g). The percent reduction in force was assigned a ‘range’ score: 0=no block (or baseline); 1=minimal block, force between the pre-injection control value of 100% and 50%; 2=moderate block, force between 50% of the pre-injection control value and 20 g (˜20 g represented the approximate weight of the flaccid limb); 3=complete block, force 20 g or less.
For both nociceptive and motor assessment, the examination was repeated three times at each time point and reported as an average of the three exams.

skin = test: Skin appearance / irritation after transdermal patch; assay type: in vivo, rat
Description: as §1

sciatic nerve [4] = conditions: followed by capsaicin; cited from earlier work
[5] = 2.5% amitriptyline patch alone, applied 3 hours
[6] = 0.0625% drug + 0.05% capsaicin (10 min apart)
[7] = 0.0625% drug alone, 0.2 mL at sciatic notch
[8] = 0.125% drug + 0.05% capsaicin (10 min apart)
[9] = 0.125% drug + 0.05% capsaicin (mixed)
[10] = 0.125% drug + vehicle (10 min apart)
[11] = 0.25% drug + 0.05% capsaicin (10 min apart)
[12] = 0.25% drug + 0.05% capsaicin (mixed)
[13] = 0.25% drug + vehicle (10 min apart)
[14] = 2% drug + 0.05% capsaicin (10 min apart)
[15] = 2% drug + 0.05% capsaicin (mixed)
[16] = 2% drug + vehicle (10 min apart)
[17] = 0.125% solution administered alone

Structure (SMILES) | Complete recovery time, Nociception, Mean (sciatic nerve [2]; [6]) [h] | Complete recovery time, Nociception, Mean (sciatic nerve [2]; [7]) [h] | dose-response of block, in words (sciatic nerve [2]) | Complete recovery time, Nociception, Mean (sciatic nerve [2]; [8]) [h] | Complete recovery time, Nociception, Mean (sciatic nerve [2]; [9]) [h] | Complete recovery time, Nociception, Mean (sciatic nerve [2]; [10]) [h] | Complete recovery time, Nociception, Mean (sciatic nerve [2]; 0.125% drug alone) [h] | Complete recovery time, Nociception, Mean (sciatic nerve [2]; [11]) [h] | Complete recovery time, Nociception, Mean (sciatic nerve [2]; 0.25% drug alone) [h] | kind of blockade (nociceptive vs motor), in words (sciatic nerve [2]; hydrochloride) | Complete recovery time, Motor, Mean (sciatic nerve [3]; [6]) [h] | Complete recovery time, Motor, Mean (sciatic nerve [3]; [7]) [h] | Complete recovery time, Motor, Mean (sciatic nerve [3]; [8]) [h] | Complete recovery time, Motor, Mean (sciatic nerve [3]; [9]) [h] | Complete recovery time, Motor, Mean (sciatic nerve [3]; [10]) [h] | Complete recovery time, Motor, Mean (sciatic nerve [3]; 0.125% drug alone) [h] | Complete recovery time, Motor, Mean (sciatic nerve [3]; [11]) [h] | Complete recovery time, Motor, Mean (sciatic nerve [3]; 0.25% drug alone) [h] | kind of blockade (nociceptive vs motor), in words (sciatic nerve [2]) | effect of vehicle on block, in words (sciatic nerve [2]) | also measured
CN(C)CCC=C1c2ccccc2CCc2ccccc21 [Amitriptyline, amitriptyline hydrochloride] | 2.88 | 0.25 | dose-dependent and predominantly nociceptive block | 17.25 | 2.69 | 2.13 | 4.56 | 33.37 | 11.25 | predominantly nociceptive-specific blockade; also recorded: large differential block | 1.38 | 0.44 | 3.25 | 0.44 | 2.62 | 3.44 | 2.31 | 9.13 |  |  | complete block to pinprick (duration) [1, 5]: 4.5 h; time to full recovery [1, 5]: 96 h; complete block to pinprick (duration) ([1]; 3 h): 6 to 9 h; time to full recovery ([1]; 3 h): 216 h; effect on motor block, in words (sciatic nerve [3]; 0.25%, followed by capsaicin): motor block decreased; effect on motor block, in words (sciatic nerve [3]; capsaicin given simultaneously with the local anesthetic, hydrochloride): significantly decreased the motor blockade; also recorded: decreased the absolute duration of motor block; skin effects, in words (skin; 2.5% amitriptyline patch alone): causes toxic effects in skin; skin effects, in words (skin; amitriptyline 2.5% with capsaicin 8% patch): no adverse skin reactions
CCCCN1CCCCC1C(=O)Nc1c(C)cccc1C (stereo not shown) [Bupivacaine, bupivacaine hydrochloride] |  |  |  |  |  |  |  | 23.14 | 2.50 |  |  |  |  |  |  |  | 2.31 | 2.31 | predominantly nociceptive-specific blockade | intensification of both motor and nociceptive block | Complete recovery time, Nociception, Mean (sciatic nerve [2]; [12]): 1.63 h; Complete recovery time, Nociception, Mean (sciatic nerve [2]; [13]): 4.75 h; nociceptive vs motor blockade, in words (sciatic nerve [2]; 0.25%, followed by capsaicin or vehicle 10 minutes later): significantly increased the nociceptive blockade over motor blockade; Complete recovery time, Motor, Mean (sciatic nerve [3]; [12]): 1.56 h; Complete recovery time, Motor, Mean (sciatic nerve [3]; [13]): 2.87 h; effect on motor block, in words (sciatic nerve [3]; capsaicin given simultaneously with the local anesthetic): decreased the absolute duration of motor block
CCN(CC)CC(=O)Nc1c(C)cccc1C [Lidocaine, lidocaine hydrochloride] |  |  |  |  |  |  |  |  |  | smallest differential block among all drug combinations |  |  |  |  |  |  |  |  |  | intensification of both motor and nociceptive block | Complete recovery time, Nociception, Mean (sciatic nerve [2]; [14]): 7.62 h; Complete recovery time, Nociception, Mean (sciatic nerve [2]; [15]): 3.00 h; Complete recovery time, Nociception, Mean (sciatic nerve [2]; [16]): 2.12 h; Complete recovery time, Nociception, Mean (sciatic nerve [2]; 2% drug alone): 1.25 h; motor and nociceptive block, in words (sciatic nerve [2]; 2% given alone): complete but relatively short-lasting motor and nociceptive block; kind of blockade (nociceptive vs motor), in words (sciatic nerve [2]; listed as lidocaine, hydrochloride): predominantly nociceptive-specific blockade; Complete recovery time, Motor, Mean (sciatic nerve [3]; [14]): 1.69 h; Complete recovery time, Motor, Mean (sciatic nerve [3]; [15]): 1.50 h; Complete recovery time, Motor, Mean (sciatic nerve [3]; [16]): 2.00 h; Complete recovery time, Motor, Mean (sciatic nerve [3]; 2% drug alone): 1.13 h
C[N+](C)(C)CCC=C1c2ccccc2CCc2ccccc21 [N-Methyl Amitriptyline, N-methyl amitriptyline] | 0.13 | 0.00 | dose-dependent and predominantly nociceptive block | 11.63 | 10.87 | 0.81 | 0.67 | 33.00 | 3.63 |  | 0.06 | 0.12 | 0.04 | 0.12 | 0.38 | 0.31 | 1.81 | 1.44 | predominantly nociceptive-specific blockade |  | kind of blockade, in words (sciatic nerve [2]; 0.125% + capsaicin 0.05%, 10 minutes after or injected simultaneously): very prolonged sensory-selective block; duration of nociceptive blockade (sciatic nerve [2]; [17]): < 1 h; duration of motor blockade (sciatic nerve [3]; [17]): < 1 h
CC[N+](CC)(CC)CC(=O)Nc1c(C)cccc1C [QX-314] |  |  |  |  |  |  |  |  |  |  |  |  |  |  |  |  |  |  |  |  | kind of sciatic nerve block, in words (sciatic nerve [4]): nociceptor-selective sciatic nerve block
COc1cc(CNC(=O)CCCCC=CC(C)C)ccc1O [capsaicin, 8-methyl-N-vanillyl-6-nonenamide] |  |  |  |  |  |  |  |  |  |  |  |  |  |  |  |  |  |  |  |  | motor and nociceptive block, in words (sciatic nerve [2]; injected alone, 0.05%, 0.2 mL): no detectable block
